Experiments:
[1] = tested on: Ca-dependent Mg-ATPase release of p29 vesicles from F-actin; test: release of F-actin-bound p29 vesicles by Ca-dependent Mg-ATPase; format: biochemical, rat; conditions: 5 mM EGTA
Text: To determine whether this is a direct interaction between the vesicle and F-actin or is mediated by other actin-bound proteins, e.g., myosin V, the release of p29 vesicle bound to F-actin by activating a Ca-dependent Mg-ATPase was investigated. Synaptic vesicle-bound myosin V is released from F-actin by activating the Ca-dependent MgATPase found in the actin binding head of myosin V (Prekeris et al, 1997, J. Cell Biol. 137: 1589-1601; Nascimento et al., 1996, J. Biol. Chem. 271:17561-17569). In this experiment, confluent monolayers of astrocytes were grown in serum-free media for 16 hours, then D2 activity was induced with bt2cAMP and hydrocortisone, and the p29 vesicle was affinity radiolabeled with BrAc[^125I]T4. Cell lysates containing approximately 50,000 cpm of BrAc[^125I]T4-labeled p29 were pretreated with 10 nM […] at 37° C., followed by an additional 20 minute incubation with 0.1 mM Ca^2+, 1 mM Mg^2+, 0.1 mM ATP, or 5 mM EGTA. Triton-insoluble (F-actin bound) pellets were prepared as described herein. […] Triton-insoluble (F-actin-bound) pellets were separated from the Triton-soluble (vesicle) fraction by microfuge centrifugation (14,000×g for five minutes) and the distribution of p29 was determined by y-counting, and by SDS-PAGE analysis.

[2] = tested on: cerebellar granule neurons; test: release of FM1-43-loaded synaptic vesicles from cerebellar granule neurons under continuous stimulus; format: cell-based, rat; conditions: 10 nM hormone; continuous stimulation by 50 mM KCl; vs no hormone controls; first order kinetics assumed
Procedure: Granule neurons were grown for 7 days and rendered hormone free by growth in serum-free medium as detailed above. Coverslips were then placed in a perfusion chamber, mounted on the stage of a laser scanning confocal microscope and perfused at 1 ml/min at 25° C. with perfusion buffer (119 mM NaCl, 2.5 mM KCl, 2 mM CaCl2, 2 mM MgCl2, 25 mM HEPES (pH 7.4), 30 mM glucose, and […] AP-5). The effects of different hormones on synaptic vesicle trafficking were then determined. […] Depolarizing KCl was then removed from the perfusion buffer and the cells were exposed to FM1-43 for an additional 30 seconds to insure complete loading of recycling synaptic vesicles. Loaded cells were then washed free of dye and the cells were perfused for ten minutes at rest.
Images of a single field of neuronal fibers were then taken immediately before adding a second depolarizing solution (perfusion buffer containing 50 mM KCl) and at one and two minutes after beginning the continuous stimulation by 50 mM KCl. Thirty to forty-five individual FM1-43 labeled nerve terminals were identified in the baseline images (taken prior to depolarization) and the change in fluorescence (DF) for each nerve terminal determined at the one and two minute time points. FIGS. 11A and 11B show the results of analysis of the hormone specificity of synaptic vesicle trafficking (FIG. 11A) and the influence of individual myo5a mutants (FIG. 11B) on synaptic vesicle transport in granule neurons.
To evaluate the role of myo5a in synaptic vesicle transport, three different myo5a constructs were introduced into the neurons by replication-deficient adenoviral vectors (Δmyo5a^tail(MyoV^tail), Δmyo5a^c-term(MyoV^1830)and ΔMyo5a^CC(MyoV^cc) see FIG. 5) as described above. […] Neurons were infected with purified Ad5-constructs (MOI=10) 48 hours prior to the synaptic vesicle trafficking study, and allowed to recover in hormone (T4) supplemented medium. […] This modest influence of the VBD mutant on synaptic vesicle retention is likely to be due to the loss of the kinesin-binding domain that limits its delivery to nerve terminals.

ΔTRα1 = ΔTRα1 (Rattus norvegicus, UniProt P63059); test: [125I]rT3 displacement from cell-free translated ΔTRα1; format: binding; conditions: cell-free translated polypeptide
Text: (§1) ΔTRα1 and ΔTRα2 polypeptides were synthesized by cell-free translation of appropriate segments of the rat ΔTRα1 and ΔTRα2 cDNA using the coupled transcription-translation kit from Promega® (TNT) according to the manufacturer's instructions.

ΔTRα2 = target: T1, ΔTRα2 (Rattus norvegicus, UniProt P63059); test: [125I]rT3 displacement from cell-free translated ΔTRα2; format: binding; conditions: cell-free translated polypeptide
T1 sequence (P63059 256-492): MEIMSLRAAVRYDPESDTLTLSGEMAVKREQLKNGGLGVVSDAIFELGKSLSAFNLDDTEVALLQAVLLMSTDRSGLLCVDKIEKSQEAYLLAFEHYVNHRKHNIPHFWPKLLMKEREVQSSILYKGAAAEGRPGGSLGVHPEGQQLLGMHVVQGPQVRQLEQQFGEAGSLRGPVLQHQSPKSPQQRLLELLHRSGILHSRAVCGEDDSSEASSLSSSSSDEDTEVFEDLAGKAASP
Text: as §1

[3] = target: T2, ΔTRα2 (T4 Inactivating Protein; TIP) (Rattus norvegicus, UniProt P63059); test: rT3 binding displacement in nuclei-free extracts of cultured rat astrocytes
T2 construct: ΔTRα2 is encoded by exons 8-10 resulting in an approximately 25 kd protein
T2 sequence (P63059 whole entry, stated change not applied): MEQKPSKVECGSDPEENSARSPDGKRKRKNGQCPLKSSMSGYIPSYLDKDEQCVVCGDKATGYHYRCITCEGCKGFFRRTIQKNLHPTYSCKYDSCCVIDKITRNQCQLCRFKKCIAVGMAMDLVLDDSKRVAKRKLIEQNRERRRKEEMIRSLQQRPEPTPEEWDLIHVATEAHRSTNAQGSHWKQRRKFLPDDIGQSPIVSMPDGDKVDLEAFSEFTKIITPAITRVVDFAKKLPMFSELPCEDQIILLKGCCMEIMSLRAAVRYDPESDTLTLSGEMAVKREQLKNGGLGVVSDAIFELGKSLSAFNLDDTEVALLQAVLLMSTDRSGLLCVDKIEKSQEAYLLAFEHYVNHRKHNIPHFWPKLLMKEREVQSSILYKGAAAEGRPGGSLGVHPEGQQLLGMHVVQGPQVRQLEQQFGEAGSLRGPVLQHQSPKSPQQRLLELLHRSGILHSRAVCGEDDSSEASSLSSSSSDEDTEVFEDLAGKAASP
Procedure: The properties of thyroid hormone binding to non-nuclear components of the cell were examined using ΔTRα2 (T4 Inactivating Protein; TIP)-containing, nuclei-free extracts of cultured rat astrocytes. […] Both rT3 and T4 specifically displace rT3 with Kd's of approximately 0.3-0.5 nM.

[4] = target: binding of p29^GFP vesicles to F-actin; test: modified in vitro actin binding assay with p29^GFP-labeled vesicles; format: biochemical, rat; conditions: 0-100 nM, 20 minutes at 37° C.; read-out: EC50, increase in quantity of p29^GFP bound to F-actin
Procedure: To define the specific region(s) of the myosin V tail that interact with the p29 vesicle, a series of deletion mutations were created based on the dominant negative effect of exogenous myosin V tail on p29 vesicle binding. Competition analysis of the myosin V deletion mutations on T4-dependent binding of p29 vesicles to F-actin was performed using a modified in vitro assay in which a GFP-tagged p29 fusion protein (p29^GFP) replaced the radioaffinity labeled native p29 (Farwell et al., 1990, J. Biol. Chem. 265:18546-18553; Farwell et al., 1993, J. Biol. Chem. 268:5055-5062). This allowed direct evaluation of the binding of fluorescent vesicles to F-actin without affinity radiolabeling of the p29 and subsequent SDS-PAGE analysis.
Specific fluorescence at 510 nm (excitation, 488 nm) was then determined in the resuspended Triton-insoluble pellets.
To determine if the myosin V tail could be captured by the p29^GFP vesicle, an exogenous myosin V^tail was introduced into astrocytes constitutively expressing p29^GFP by infection with Ad5-ΔMyo V^tail virus particles and examined the effects of T4 on the binding of the myosin V^tail to immunopurified p29^GFP vesicles. Astrocytes expressing p29^GFP were grown in serum-free media and treated for 16 hours with 1 mM bt2cAMP and 100 nM hydrocortisone. A separate pool of astrocytes was treated in serum-free media supplemented with 10 μM retinoic acid. Cells were collected by scraping, and lysed by two freeze-thaw cycles. […] Triton-soluble (vesicle) and Triton-insoluble (F-actin) fractions were separated by microflige centrifugation. Triton pellets were resuspended in 300 μl of PBS and fluorescence at 510 nm (excitation 488 nm) determined and relative fluorescence was reported as arbitrary units. Cells were treated with 10 nM T4 for twenty minutes and a Triton-soluble supernatant was prepared. Vesicles containing the p29^GFP were immunoprecipitated by anti-GFP IgG (2 μg/ml) and protein in the immunoprecipitates were resolved by SDS-PAGE. Immunoblot analysis of vesicle-associated myosin V was performed using the anti-myosin V antibody directed against the C-terminus.
The quantity of each mutant protein synthesized was determined by [^35 S]-methionine incorporation. Astrocytes expressing p29^GFP were grown in serum-free media and treated for 16 hours with […] bt2cAMP and 100 nM hydrocortisone. p29^GFP V-lysate and F-lysate were prepared as described herein. 100 μg aliquots of p29^GFP V-lysate and F-lysate were pre-incubated, in triplicate, for 20 minutes at 37° C. in the presence of individual Δ myosin V mutant proteins (˜2-3 pmol polypeptide/50 μl mixture) were added to the actin-binding assay and pre-incubated for 20 minutes at 37° C. T4 (10 nM) was then added, the mixtures incubated for 20 minutes at 37° C., and F-actin bound, fluorescent p29^GFP vesicles were then isolated in the Triton-insoluble pellet.
V lysates prepared from astrocytes over-expressing p29^GFP were pre-incubated for 30 minutes at room temperature with antisera raised against ΔTRα2, ΔTRα1, the C-terminus of MyoV (encoded by MyoV^tail, FIG. 5), the coiled-coil region of MyoV (encoded by MyoV^coil-coil, FIG. 5) and GFP (green fluorescent protein). T4 (10 nM) and actin fiber-containing F-lysate was then added, the mixtures incubated at 37° C. for 20 minutes, and the Triton-insoluble fraction isolated by centrifugation.

astrocytes = test: subcellular distribution of immunoreactive TRα2-derived proteins in cultured astrocytes; format: cell-based, rat; conditions: serum-free medium, treated 20 minutes, 0.1% bovine serum albumin carrier
Text: The subcellular distribution of immunoreactive thyroid hormone receptor-derived proteins in primary brain cell cultures and in cultured astrocytes was examined. Primary brain cell cultures were fixed with 0.4% paraformaldehyde, permeabilized with Triton X-100®, and stained for TRα-derived proteins using specific antisera directed against the unique C-termini of TRα1 and TRα2 proteins, and visualized by staining with a secondary tagged antibody. Consistent with previous observations (Kolodny et al., 1985, Endocrinol. 117: 1848-1857), immunoreactive TRα1 proteins were found in the nuclei of astrocytes and neuronal cells. However, TRα2-derived proteins were not localized to the nucleus in either astrocytes or neurons, but appeared as donut shaped structures located throughout the astrocyte or as discreet punctate signals along neuronal fibers. This latter pattern is diagnostic for synapses in neuronal cultures (Wong et al., 1999, Neurosci. 89:221-233), and is consistent with the presence of ΔTRα2-derived protein in nerve terminals.
The subcellular distribution of immunoreactive TRα2-derived proteins in cultured astrocytes was influenced by the presence of either T4 or rT3. In these experiments astrocytes were grown in serum-free medium, treated for 20 minutes with either […] or rT3, and fixed, permeabilized, and stained as described above. […]

deiodination = conditions: cited from earlier work
transthretin = transthretin (Homo sapiens, UniProt P02766); conditions: cited from earlier work
T4 deiodinases = conditions: cited from earlier work
D2 activity = conditions: in astrocytes; cited from earlier work

In the case of `O=C(O)CN(CCOCCOCCN(CC(=O)O)CC(=O)O)CC(=O)O` [EGTA], the “block of Ca2+-stimulated, Mg2ATPase-dependent release of p29 from F-actin” value [1] is reported as “more than 50%”.
With `N[C@@H](Cc1ccc(Oc2cc(I)c(O)c(I)c2)c(I)c1)C(=O)O` [rT3, 3, 3′, 5′-triiodothyronine] the “decrease of the rate of FM1-43 release” value [2] was 75%, the Kd (ΔTRα1) was 0.3 to 1 nM and the Kd (ΔTRα2) was 0.3 to 1 nM. The Kd [3] was 0.3 to 0.5 nM, the EC50 [4] was about 0.5 nM and the “subcellular distribution of TRα2-derived proteins” value (astrocytes) was “coalescence of the TRα2-derived proteins around the perinuclear space”.
In the case of `O=C(CCc1ccc(O)cc1)c1c(O)cc(O)cc1O` [phloretin], the inhibition of deiodination (deiodination) is given as “potent inhibitor”.
In the case of `Cc1c(-c2cc(Br)c(O)c(Br)c2)oc2ccc(O)cc2c1=O` [EMD21388], the “block of the binding of T4 to transthretin” value (transthretin) is given as “competitively block”, the “inhibition of T4 deiodinases” value (T4 deiodinases) is given as “can inhibit” and the “quantity of D2 activity” value (D2 activity) is given as “decreases the quantity of D2 activity”.
